# Measured values taken from PubChem BioAssay AID248 (DTP/NCI, 2004).
# Where “and” joins values, the source holds several entries; their conditions need not be identical. Equal entries are not always repeated. Toxic doses and inconclusive results are not listed.
# Test system: L1210 leukemia ip in BDF1 mice, survival T/C
# Assay: NCI In Vivo Anticancer Drug Screen. Data for tumor model L1210 Leukemia (intraperitoneal) in B6D2F1 (BDF1) mice
# Settings: endpoint: mean survival time, higher = longer survival
# Method: The antitumor activity of compounds was measured in mice bearing transplantable tumors. Survival or tumor size were measured and the results are expressed as the measurement made in the treated group (T) divided by the measurement made in the vehicle treated control group (C). The tumor model used in this assay is L1210 Leukemia (intraperitoneal) in B6D2F1 (BDF1) mice
# [1] = dose: 50.0 mg/kg/injection, schedule: Q01DX009 (ip), vehicle: Klucel (hydroxypropylcellulose) (HPC)
# [2] = dose: 75.0 mg/kg/injection, schedule: Q01DX001 (ip), vehicle: saline
# [3] = dose: 50.0 mg/kg/injection, schedule: Q01DX009 (ip), vehicle: gum acacia
# [4] = dose: 100.0 mg/kg/injection, schedule: Q01DX009 (ip), vehicle: gum acacia
# [5] = dose: 200.0 mg/kg/injection, schedule: Q01DX009 (ip), vehicle: gum acacia
# [6] = dose: 100.0 mg/kg/injection, schedule: Q01DX001 (ip), vehicle: carboxymethylcellulose (CMC)
# [7] = dose: 200.0 mg/kg/injection, schedule: Q01DX001 (ip), vehicle: carboxymethylcellulose (CMC)
# [8] = dose: 400.0 mg/kg/injection, schedule: Q01DX001 (ip), vehicle: carboxymethylcellulose (CMC)
# [9] = dose: 100.0 mg/kg/injection, schedule: Q01DX001 (ip), vehicle: Klucel (hydroxypropylcellulose) (HPC)
# [10] = dose: 100.0 mg/kg/injection, schedule: Q01DX009 (ip), vehicle: Klucel (hydroxypropylcellulose) (HPC)
# [11] = dose: 200.0 mg/kg/injection, schedule: Q01DX009 (ip), vehicle: Klucel (hydroxypropylcellulose) (HPC)
# [12] = dose: 100.0 mg/kg/injection, schedule: Q04DX003 (ip), vehicle: Klucel (hydroxypropylcellulose) (HPC)
# [13] = dose: 400.0 mg/kg/injection, schedule: Q04DX003 (ip), vehicle: Klucel (hydroxypropylcellulose) (HPC)
structure (smiles),measurement,setting,value
CCCCCCCCCCCCCCCCCC1=NCC[N+]1(CCO)Cc1ccccc1 (centres undefined) (tested in a mixture with another compound),T/C,"dose: 12.5 mg/kg/injection, schedule: Q04DX003 (ip), vehicle: saline with Tween-80",98 % of control
same,T/C,"dose: 25.0 mg/kg/injection, schedule: Q04DX003 (ip), vehicle: saline with Tween-80",101 % of control
NC1=NC(CCc2ccccc2)N(c2ccc3ccccc3c2)C(N)=N1 (centres undefined),T/C,"dose: 4.7 mg/kg/injection, schedule: Q01DX009 (ip), vehicle: saline sonified",96 % of control
same,T/C,"dose: 9.4 mg/kg/injection, schedule: Q01DX009 (ip), vehicle: saline sonified",103 % of control
same,T/C,"dose: 18.8 mg/kg/injection, schedule: Q01DX001 (ip), vehicle: saline",91 % of control
O=C1C=CC(=O)C(c2ccccc2)=C1,T/C,"dose: 6.0 mg/kg/injection, schedule: Q04DX003 (ip), vehicle: Klucel (hydroxypropylcellulose) (HPC)",95 % of control
same,T/C,"dose: 12.0 mg/kg/injection, schedule: Q01DX001 (ip), vehicle: saline",104 % of control
same,T/C,"dose: 12.0 mg/kg/injection, schedule: Q01DX009 (ip), vehicle: Klucel (hydroxypropylcellulose) (HPC)",90 % of control
same,T/C,"dose: 12.0 mg/kg/injection, schedule: Q04DX003 (ip), vehicle: Klucel (hydroxypropylcellulose) (HPC)",98 % of control
same,T/C,"dose: 25.0 mg/kg/injection, schedule: Q01DX001 (ip), vehicle: saline",100 % of control
same,T/C,"dose: 25.0 mg/kg/injection, schedule: Q01DX009 (ip), vehicle: Klucel (hydroxypropylcellulose) (HPC)",100 % of control
same,T/C,"dose: 25.0 mg/kg/injection, schedule: Q04DX003 (ip), vehicle: Klucel (hydroxypropylcellulose) (HPC)",98 % of control
same,T/C,[1],100 % of control
CCCCCC#CC(C)OC(=O)Nc1cccc2ccccc12 (centres undefined),T/C,"dose: 100.0 mg/kg/injection, schedule: Q01DX001 (ip), vehicle: saline with Tween-80",96 % of control
same,T/C,"dose: 200.0 mg/kg/injection, schedule: Q01DX001 (ip), vehicle: saline with Tween-80",98 % of control
same,T/C,"dose: 400.0 mg/kg/injection, schedule: Q01DX001 (ip), vehicle: saline with Tween-80",86 % of control
CC1CCC/C(=N/Nc2ccc3ccccc3n2)C1 (centres undefined),T/C,[2],113 % of control
Cc1ccc(S(=O)(=O)OCC2OC(n3cnc4c(NC=O)ncnc43)C(OC=O)C2OC=O)cc1 (centres undefined),T/C,[3],115 % of control
same,T/C,"dose: 100.0 mg/kg/injection, schedule: Q01DX005 (ip), vehicle: saline",105 % of control
same,T/C,[4],104 % of control
same,T/C,[5],100 % of control
Cc1cc(=O)oc2cc(OS(C)(=O)=O)ccc12,T/C,[6],113 % of control
same,T/C,[7],107 % of control
same,T/C,[8],98 % of control
CCCCCCCCCCCCCCCCCc1c(Cl)c(Cl)c(Cl)c(Cl)c1Cl,T/C,[9],90 % of control
O=C(CNC(=O)Nc1ccc(C2=NCCN2)cc1)Nc1ccc(C2=NCCN2)cc1,T/C,"dose: 4.5 mg/kg/injection, schedule: Q01DX Z (ip), vehicle: carboxymethylcellulose (CMC)",117 % of control
same,T/C,"dose: 9.0 mg/kg/injection, schedule: Q01DX Z (ip), vehicle: carboxymethylcellulose (CMC)",159 % of control
same,T/C,"dose: 18.0 mg/kg/injection, schedule: Q01DX Z (ip), vehicle: carboxymethylcellulose (CMC)",247 % of control
same,T/C,"dose: 36.0 mg/kg/injection, schedule: Q01DX Z (ip), vehicle: carboxymethylcellulose (CMC)",192 % of control
same,T/C,"dose: 50.0 mg/kg/injection, schedule: Q01DX Z (oral), vehicle: water",98 % of control
same,T/C,"dose: 100.0 mg/kg/injection, schedule: Q01DX Z (oral), vehicle: water",115 % of control
same,T/C,"dose: 200.0 mg/kg/injection, schedule: Q01DX Z (oral), vehicle: water",119 % of control
same,T/C,"dose: 400.0 mg/kg/injection, schedule: Q01DX Z (oral), vehicle: water",150 % of control
Nc1cc2c(cc1Br)-c1ccccc1/C2=N\O,T/C,[6],102 % of control
same,T/C,[7],102 % of control
same,T/C,[8],100 % of control
CCCCCCCCCCCC(=O)Nc1ccc(O)cc1,T/C,"dose: 25.0 mg/kg/injection, schedule: Q01DX009 (ip), vehicle: gum acacia",93 % of control
same,T/C,[3],93 % of control
same,T/C,[4],96 % of control
same,T/C,"dose: 100.0 mg/kg/injection, schedule: Q04DX003 (ip), vehicle: gum acacia",88 % of control
same,T/C,[5],92 % of control
same,T/C,"dose: 200.0 mg/kg/injection, schedule: Q04DX003 (ip), vehicle: gum acacia",86 % of control
same,T/C,"dose: 400.0 mg/kg/injection, schedule: Q01DX009 (ip), vehicle: gum acacia",92 % of control
same,T/C,"dose: 400.0 mg/kg/injection, schedule: Q04DX003 (ip), vehicle: gum acacia",95 % of control
CC1(C)N=C(N)N=C(N)N1c1cccc([N+](=O)[O-])c1,T/C,"dose: 25.0 mg/kg/injection, schedule: Q04DX002 (ip), vehicle: saline",93 % of control
same,T/C,"dose: 25.0 mg/kg/injection, schedule: Q04DX003 (ip), vehicle: saline",106 % of control
same,T/C,"dose: 50.0 mg/kg/injection, schedule: Q04DX002 (ip), vehicle: saline",96 % of control
same,T/C,"dose: 50.0 mg/kg/injection, schedule: Q04DX003 (ip), vehicle: saline",105 % of control
same,T/C,"dose: 100.0 mg/kg/injection, schedule: Q04DX002 (ip), vehicle: saline",91 % of control
same,T/C,"dose: 100.0 mg/kg/injection, schedule: Q04DX003 (ip), vehicle: saline",98 % of control and 111 % of control
Cc1ccc(S(=O)(O)=S)cc1.[Fe],T/C,[2],88 % of control
same,T/C,"dose: 300.0 mg/kg/injection, schedule: Q01DX001 (ip), vehicle: saline",86 % of control
CCOC(=O)C(C)(C)Oc1ccc(OC(C)(C)C(=O)OCC)cc1,T/C,[10],93 % of control
same,T/C,[11],100 % of control
same,T/C,"dose: 400.0 mg/kg/injection, schedule: Q01DX009 (ip), vehicle: Klucel (hydroxypropylcellulose) (HPC)",102 % of control
O=C(O)c1cc(O)c2c(c1)C(C1c3cc(C(=O)O)cc(O)c3C(=O)c3c(OC4OC(CO)C(O)C(O)C4O)cccc31)c1cccc(OC3OC(CO)C(O)C(O)C3O)c1C2=O (centres undefined),T/C,"dose: 100.0 mg/kg/injection, schedule: Q01DX001 (ip), vehicle: saline",98 % of control and 101 % of control
same,T/C,"dose: 200.0 mg/kg/injection, schedule: Q01DX001 (ip), vehicle: saline",97 % of control
same,T/C,"dose: 400.0 mg/kg/injection, schedule: Q01DX001 (ip), vehicle: saline",103 % of control and 106 % of control
CCOC(=O)CCc1c(C)[nH]c(C(=O)OCC)c1C,T/C,[9],98 % of control
same,T/C,[12],92 % of control
same,T/C,"dose: 200.0 mg/kg/injection, schedule: Q01DX001 (ip), vehicle: Klucel (hydroxypropylcellulose) (HPC)",97 % of control
same,T/C,"dose: 400.0 mg/kg/injection, schedule: Q01DX001 (ip), vehicle: Klucel (hydroxypropylcellulose) (HPC)",97 % of control
same,T/C,[13],108 % of control
N#CC(C(=O)c1ccccc1)(C(=O)c1ccccc1)c1cccc2ccccc12,T/C,[1],89 % of control
same,T/C,[10],95 % of control
same,T/C,[12],90 % of control
same,T/C,[11],92 % of control
same,T/C,"dose: 200.0 mg/kg/injection, schedule: Q04DX003 (ip), vehicle: Klucel (hydroxypropylcellulose) (HPC)",96 % of control
same,T/C,[13],95 % of control
C(=C(c1ccccc1)c1ccccc1)c1ccccn1,T/C,"dose: 100.0 mg/kg/injection, schedule: Q01DX009 (ip), vehicle: saline with Tween-80",97 % of control
same,T/C,"dose: 100.0 mg/kg/injection, schedule: Q04DX003 (ip), vehicle: saline with Tween-80",98 % of control
same,T/C,"dose: 200.0 mg/kg/injection, schedule: Q01DX009 (ip), vehicle: saline with Tween-80",100 % of control
same,T/C,"dose: 200.0 mg/kg/injection, schedule: Q04DX003 (ip), vehicle: saline with Tween-80",93 % of control
same,T/C,"dose: 400.0 mg/kg/injection, schedule: Q01DX009 (ip), vehicle: saline with Tween-80",97 % of control
